Measured values as given in patent US20150223675A1, “LUMINAL ADMINISTRATION OF TAG MOLECULES FOR DIAGNOSTIC APPLICATIONS” (GIVEN IMAGING LTD., priority 2012, published 2015).
“And” between values parts separate entries of the source, which are not always exact repeats. Equal values may be shown once.

How the values were obtained:
human colorectal tumors = assay: Luminal (rectal, minicolonoscope) administration of dye to orthotopic mice; fluorescence of tumor and surrounding colon tissue by fluorescent camera, with histopathology; assay type: in vivo, mouse; details: for fluorescent labeling of tumor exposed to the colon lumen: tumor confirmed by histopathology
Experimental: Orthotopic mice with human colorectal tumors in their colons were used for […] administration of the IR-783 derivative—IR-783-S-PH-COOH. 4 μg of the IR-783-S-PH-COOH dissolved in 200 μl PBS were introduced into the colon of the mouse via minicolonoscope inserted through the rectum. The IR-783-S-PH-COOH solution was incubated in the colon for 20 minutes and then washed out with 5 ml PBS inserted through the rectum. Four hours later, mice were sacrificed and the fluorescence of the tumor and the surrounding colon tissue was measured by a fluorescent camera setup. Histopathological examination was performed on paraffin fixed colonic tissue specimens.
Orthotopic mice with human colorectal tumors in their colons were used for luminal administration of IR-783. 4 μg of IR-783 dissolved in 200 μl PBS were introduced into the colon of the mouse via a minicolonoscope inserted through the rectum. The IR-783 solution was incubated in the colon for 20 minutes and then washed out with 5 ml of PBS. 4 h later, the mice were sacrificed and the fluorescence of the tumor and the surrounding colon was measured by a fluorescent camera setup. Histopathological examination was performed on paraffin fixed colonic tissue specimens.

[1] = Gastric gavage of dye to mice; organ fluorescence (liver, spleen, heart, lungs, kidneys, brain) by fluorescent camera; assay type: in vivo; details: 5 hours later
Experimental: 4 μg of IR-783 dissolved in 200 μl PBS were introduced into mice stomach by gastric gavage. Five hours later, the mice were sacrificed and liver, spleen, heart, lungs, kidneys and brain were collected and measured for fluorescence by a fluorescent camera setup. […] Grey levels of the organs are indicated by the numbers on the fluorescent pictures next to the imaged organs, e.g., grey level in the liver was 4000 in two mice and 2500 in a third mouse, and grey levels in the kidneys were 3500, 200 and 1200, respectively.

tumors = details: 24 hours after dye administration by injection; prior art; cited from earlier work
[2] = 4 μg in 200 μl PBS into colon, 20 min incubation, 4 h later
[3] = 4 μg in 200 μl PBS by gastric gavage, individual mice

| organs in which fluorescence was detected ([1]; 4 μg by gastric gavage, liver, spleen, heart, lungs, kidneys, brain examined) | grey level in the liver [1, 3] | grey levels in the kidneys [1, 3] | Compound | fluorescent labeling of tumor exposed to the colon lumen (human colorectal tumors; [2]) | fluorescent labeling of tumors developed below the murine mucosal layer (not exposed to colon lumen) (human colorectal tumors; 4 μg into colon, 20 min incubation, 4 h later, FIG. 6B) | dye concentration in tumors compared to normal body tissue (tumors) | tumor to background ratio (human colorectal tumors; 4 μg in 200 μl PBS into colon, 20 min incubation, washed out, measured 4 h later, 1 second exposure, histopathologically confirmed tumor) | fluorescent labeling of non-cancerous lymphatic tissue region (human colorectal tumors; 4 μg into colon, 4 h later, suspected region with no tumor cells) |
| --- | --- | --- | --- | --- | --- | --- | --- | --- |
| detected in the liver and kidneys | 4000 and 2500 | 3500 and 200 and 1200 | CC1(C)C(=CC=C2CCCC(C=CC3=[N+](CCCCS(=O)(=O)[O-])c4ccccc4C3(C)C)=C2Cl)N(CCCCS(=O)(=O)[O-])c2ccccc21.[Na+] [IR-783] | intensely labeled | not labeled | much higher in tumors |  |  |
|  |  |  | IR-783-S-PH-COOH | intensely labeled |  |  | 60 | not labeled |
